According to patent US20100016274A1, “BETA-LACTAM CANNABINOID RECEPTOR MODULATORS” (priority 2006, published 2010):
“And” between values parts separate entries of the source, which are not always exact repeats. Equal entries are not always repeated. Where two headings read alike, the source gives them in different places.

Assays:
[1] = biological target: T1, cannabinoid receptor-2 (CB2), CB2R-containing cell membrane; hCB2 receptors (Homo sapiens, UniProt P34972); assay: Cannabinoid Receptor-2 (CB2) Binding Assay, Method A using cell membranes (displacement of 3H-CP55940); conditions: for IC50: displacement of 3H-CP55940 (1 nM), CB2R-containing cell membrane; for Ki: displacement of 3H-CP55940, CB2R-containing cell membrane, from serial dilutions
T1 construct: purchased Applied Cell Sciences Inc, Rockville, Md
T1 sequence (P34972 whole entry): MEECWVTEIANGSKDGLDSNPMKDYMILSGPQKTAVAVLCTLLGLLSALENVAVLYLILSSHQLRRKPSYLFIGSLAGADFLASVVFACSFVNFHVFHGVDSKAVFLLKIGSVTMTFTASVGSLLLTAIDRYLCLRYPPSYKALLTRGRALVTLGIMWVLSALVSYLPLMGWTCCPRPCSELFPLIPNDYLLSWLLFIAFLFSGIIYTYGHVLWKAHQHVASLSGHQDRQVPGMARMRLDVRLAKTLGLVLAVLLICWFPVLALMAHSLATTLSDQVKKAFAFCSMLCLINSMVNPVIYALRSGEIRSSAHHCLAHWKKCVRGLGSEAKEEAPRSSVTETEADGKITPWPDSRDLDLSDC
Method: Method A using cell membranes. A compound is dissolved in DMSO and diluted to 1 M as a stock solution. […] A CB2R-containing cell membrane (Applied Cell Sciences Inc, Rockville, Md.) is diluted with binding buffer to a protein concentration of 28 μg/ml.
(§1) The mixture is incubated for 90 min at room temperature, then filtered through Whatman glass fiber C disc filter in a vacuum manifold. The filter is washed three times each with 2.5 ml cold wash buffer (binding buffer with only 2.5 mg/ml BSA). The vacuum-dried filter is transferred to a scintillation vial, treated with 3 ml Eco-Scint, and the radioactivity is read on a Beckman LS6500 scintillation counter from which an IC50 value is calculated. The corresponding Ki values are obtained from serial dilutions according to this method, and calculated through the use of a non-linear regression program (Graphpad Inc, San Diego, Calif.).

[2] = biological target: T2, cannabinoid receptor-1 (CB1), CB1R-containing cell membrane (Homo sapiens, UniProt P21554); assay: biochemical; format: binding; conditions: for Ki: displacement of 3H-CP55940 on CB1 receptors, from serial dilutions, non-linear regression
T2 construct: purchased Applied Cell Sciences Inc, Rockville, Md
T2 sequence (P21554 whole entry, species assumed): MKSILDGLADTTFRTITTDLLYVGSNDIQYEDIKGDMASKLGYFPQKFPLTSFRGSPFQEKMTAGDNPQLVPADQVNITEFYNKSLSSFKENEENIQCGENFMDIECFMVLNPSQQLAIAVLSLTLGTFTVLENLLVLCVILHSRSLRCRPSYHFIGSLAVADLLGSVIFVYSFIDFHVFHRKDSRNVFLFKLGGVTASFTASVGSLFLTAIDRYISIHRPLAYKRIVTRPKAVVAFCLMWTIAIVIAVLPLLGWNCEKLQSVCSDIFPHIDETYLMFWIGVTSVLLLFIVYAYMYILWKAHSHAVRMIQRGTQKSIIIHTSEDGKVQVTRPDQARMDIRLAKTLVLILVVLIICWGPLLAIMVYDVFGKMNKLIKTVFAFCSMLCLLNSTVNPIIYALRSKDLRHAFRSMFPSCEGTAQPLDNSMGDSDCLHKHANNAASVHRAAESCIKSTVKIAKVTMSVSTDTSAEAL
Method: Method A using cell membranes. A compound is dissolved in DMSO and diluted to 1 M as a stock solution. […] A CB1R-containing cell membrane (Applied Cell Sciences Inc, Rockville, Md.) is diluted with binding buffer to a protein concentration of 28 μg/ml.
as §1

[3] = biological target: T3, hCB1 (membranes from hCB1 stably transfected CHO cells) (Homo sapiens, UniProt P21554); assay: Cannabinoid Receptor-1 (CB1) Functional Activity Assay, Method A (35S-GTPγS, WIN 55212-2); format: biochemical; conditions: for antagonism of WIN 55212-2 at CB1 receptors: FIGS. 3b-3d; for antagonism at CB1 receptors: FIGS. 5a, 6a, 7a, no WIN 55212-2 named in the legend; for antagonism of 3 μM WIN 55212-2 at CB1 receptors: FIGS. 5b, 6b, 7b
T3 construct: purchased Perkin Elmer/NEN; host or cells: CHO cells, stably transfected
T3 sequence (P21554 whole entry): as the sequence (P21554 whole entry, species assumed) above
Method: (§2) Membranes are diluted in ice-cold assay buffer (10 mM HEPES, 100 mM NaCl, 10 mM MgCl2, 2 μM GDP, 0.2% FAF-BSA, 10 μg/mL saponin) to 38 μg membranes/mL. Dilute ^35S-GTPγ5 to 1 nM in assay buffer. […] These solutions are incubated for 30 minutes at 30° C. The filters are washed 6 times with 10 mM sodium phosphate buffer (pH 7.4) at ambient temperature. The filters are counted using a liquid scintillation counter on the ^35S channel. Each compound/concentration is run in triplicate. A positive antagonism control may be run for AM251 at the same concentrations as test compounds under the same conditions.

[4] = biological target: T4, hCB2 (membranes from hCB2 stably transfected CHO cells) (Homo sapiens, UniProt P34972); assay: Cannabinoid Receptor-2 (CB2) Functional Activity Assay, Method A (35S-GTPγS); format: biochemical; conditions: positive control, FIG. 9a
T4 construct: purchased Perkin Elmer/NEN; host or cells: CHO cells, stably transfected
T4 sequence (P34972 whole entry): as the sequence (P34972 whole entry) above
Method: as §2, with “^35S-GTPγS” for “^35S-GTPγ5”, “is” for “may be”, “AM630” for “AM251”

[5] = biological target: T1, cannabinoid receptor-2 (CB2), CB2R-containing cell membrane; hCB2 receptors; assay: Cannabinoid Receptor-2 (CB2) Binding Assay, Method A using cell membranes (displacement of 3H-CP55940)
[6] = displacement of 3H-CP55940 (1 nM) on CB1 receptors, read-out: IC50
[7] = IC50, displacement of 3H-CP55940 (1 nM) on CB1 receptors
[8] = FIG. 8, against pre-bound CP55940 on CHO cells expressing hCB2 receptors

O=C(NC1(c2ccc(Cl)cc2)CC1)C(CCC(=O)N1CCN(C2CCCCC2)CC1)N1C(=O)C(N2C(=O)OCC2c2ccccc2)C1C=Cc1ccccc1 (stereo not drawn) [Example 42I]
IC50 [1]: ~10 µM

O=C(CC[C@@H](C(=O)N1CCN(C2CCCCC2)CC1)N1C(=O)[C@@H](N2C(=O)OC[C@@H]2c2ccccc2)[C@H]1/C=C/c1ccccc1)NCc1cc(F)cc(C(F)(F)F)c1 [Example 37S]
IC50 [2, 6]: 2.3 µM
Ki [2]: 1.15 µM
antagonism of WIN 55212-2 at CB1 receptors [3]: antagonism
antagonism at CB1 receptors [3]: antagonism
antagonism of 3 μM WIN 55212-2 at CB1 receptors [3]: antagonism

CCCCCCC(C)(C)c1ccc(C2CC(O)CCC2CCCO)c(O)c1 (stereo not drawn) [CP55940, 5-(1,1-dimethylheptyl)-2-[5-hydroxy-2-(3-hydroxypropyl)-cyclohexyl]-phenol]
agonism of CB2 receptors [4]: agonism

COc1ccc(C2(NC(=O)C(CCC(=O)N3CCN(C4CCCCC4)CC3)N3C(=O)C(N4C(=O)OCC4c4ccccc4)C3C=Cc3ccccc3)CC2)cc1 (stereo not drawn) [Example 42M]
IC50 [1]: ~10 µM

O=C(NCc1cccc(C(F)(F)F)c1)C(CCC(=O)N1CCN(CCc2ccccc2)CC1)N1C(=O)C(N2C(=O)OCC2c2ccccc2)C1C=Cc1ccccc1 (stereo not drawn) [Example 44B]
IC50 [1]: <1 µM

O=C(NC1(c2cccc(F)c2)CCCC1)C(CCC(=O)N1CCN(C2CCCCC2)CC1)N1C(=O)C(N2C(=O)OCC2c2ccccc2)C1C=Cc1ccccc1 (stereo not drawn) [Example 42H]
IC50 [1]: ~10 µM

CC(C)(C)OC(=O)CC(C(=O)NCc1cccc(C(F)(F)F)c1)N1C(=O)C(N2C(=O)OCC2c2ccccc2)C1C=Cc1ccccc1 [Example 19F, 2(R)-(tert-Butoxycarbonylmethyl)-2-[3(S)-(4(S)-phenyloxazolidin-2-on-3-yl)-4(R)-(2-styryl)azetidin-2-on-1-yl]acetic acid N-(3-trifluoromethylbenzyl)amide]
IC50 [1]: <1 µM

O=C(NCc1ccc(Cl)c(C(F)(F)F)c1)[C@H](CCC(=O)N1CCN(C2CCCCC2)CC1)N1C(=O)[C@@H](N2C(=O)OC[C@@H]2c2ccccc2)[C@H]1/C=C/c1ccccc1 [Example 38J]
IC50 ([5]; quoted for the single-dose negative control of the CB2 functional assay, assay of the IC50 not stated): > 10 µM

CC(C)(C)OC(=O)CCC(C(=O)NCc1cccc(C(F)(F)F)c1)N1C(=O)C(N2C(=O)OCC2c2ccccc2)C1C=Cc1ccccc1 [Example 19H, 2(R)-(tert-Butoxycarbonylethyl)-2-[3 (S)-(4(S)-phenyloxazolidin-2-on-3-yl)-4(R)-(2-styryl)azetidin-2-on-1-yl]acetic acid N-(3-trifluoromethylbenzyl)amide]
IC50 [1]: <1 µM

CC(C)(C)OC(=O)CCC(C(=O)N1CCN(CCc2ccccc2)CC1)N1C(=O)C(N2C(=O)OCC2c2ccccc2)C1C=Cc1ccccc1 [Example 19E, 2(S)-(tert-Butoxycarbonylethyl)-2-[3(S)-(4(S)-phenyloxazolidin-2-on-3-yl)-4(R)-(2-styryl)azetidin-2-on-1-yl]acetic acid N-[4-(2-phenylethyl)]piperazinamide]
IC50 [1]: <10 µM

Cc1ccc(C2(NC(=O)C(CCC(=O)N3CCN(C4CCCCC4)CC3)N3C(=O)C(N4C(=O)OCC4c4ccccc4)C3C=Cc3ccccc3)CCCC2)cc1 (stereo not drawn) [Example 42L]
IC50 [1]: ~10 µM

CC(C)(C)C(=O)C(C(=O)OCc1ccccc1)N1C(=O)C(c2cccs2)C1C=Cc1ccccc1 (mixture of isomers) [Example 70C, Benzyl 2(RS)-tert-Butylcarbonyl-2-[3(S*)-2-thienyl)-4(R*)-(2-styryl)azetidin-2-on-1-yl]acetate]
IC50 [2, 6]: 1.35 µM and 1.4 µM
Ki [2]: 0.676 µM and 0.67 µM
antagonism of WIN 55212-2 at CB1 receptors [3]: antagonism
antagonism at CB1 receptors [3]: antagonism
antagonism of 3 μM WIN 55212-2 at CB1 receptors [3]: antagonism

O=C(NC1(c2ccc(Cl)cc2)CCCC1)C(CCC(=O)N1CCN(C2CCCCC2)CC1)N1C(=O)C(N2C(=O)OCC2c2ccccc2)C1C=Cc1ccccc1 (stereo not drawn) [Example 42J]
IC50 [1]: ~10 µM

O=C(CC(C(=O)N1CCN(CCc2ccccc2)CC1)N1C(=O)C(N2C(=O)OCC2c2ccccc2)C1C=Cc1ccccc1)NCc1cccc(C(F)(F)F)c1 (stereo not drawn) [Example 28A]
IC50 [1]: <10 µM

CCN1CCN(C(=O)CCC(C(=O)NCc2cccc(C(F)(F)F)c2)N2C(=O)C(N3C(=O)OCC3c3ccccc3)C2C(Br)=Cc2ccccc2)CC1 (stereo not drawn) [Example 45U]
IC50 [1]: <10 µM

O=C(CN1C(=O)C(c2cccs2)C1C=Cc1ccccc1)OCc1ccccc1 (stereo not drawn) [Example 70B, Benzyl 2-[3(S*)-2-Thienyl)-4(R*)-(2-styryl)azetidin-2-on-1-yl]acetate]
IC50 [1]: ~1 µM
IC50 [2, 7]: < 10 µM

O=C(NCc1cccc(C(F)(F)F)c1F)C(CC(=O)N1CCC(N2CCCCC2)CC1)N1C(=O)C(N2C(=O)OCC2c2ccccc2)C1C=Cc1ccccc1 [Example 33G, 2(R)-[[4-(Piperidinyl)piperidinyl]carbonylmethyl]-2-[3 (S)-(4(S)-phenyloxazolidin-2-on-3-yl)-4(R)-(2-styryl)azetidin-2-on-1-yl]acetic acid N-(2-fluoro-3-trifluoromethylbenzyl)carboxamide]
IC50 [5, 8]: 0.273 µM
Ki [5, 8]: 0.182 µM

Cc1c(C(=O)NN2CCCCC2)nn(-c2ccc(Cl)cc2Cl)c1-c1ccc(I)cc1 [AM251, N-(piperidin-1-yl)-1-(2,4-dichlorophenyl)-5-(4-iodophenyl)-4-methyl-1H-pyrazole-3-carboxamide, reference compound]
antagonism of WIN 55212-2 at CB1 receptors [3]: antagonism

O=C(NCc1cccc(C(F)(F)F)c1)C(CC(=O)N1CCC(N2CCCCC2)CC1)N1C(=O)C(N2C(=O)OCC2c2ccccc2)C1C=Cc1ccccc1 (stereo not drawn) [Example 31A]
IC50 [1]: 0.379 µM
Ki [1]: 0.253 µM

Cc1ccc(C2(NC(=O)C(CCC(=O)N3CCN(C4CCCCC4)CC3)N3C(=O)C(N4C(=O)OCC4c4ccccc4)C3C=Cc3ccccc3)CC2)cc1 (stereo not drawn) [Example 42K]
IC50 [1]: ~10 µM

O=C(CC[C@@H](C(=O)N1CCN(C2CCCCC2)CC1)N1C(=O)[C@@H](N2C(=O)OC[C@@H]2c2ccccc2)[C@H]1/C=C/c1ccccc1)NCc1ccc(Cl)c(C(F)(F)F)c1 [Example 37U]
IC50 [2, 6]: 2.1 µM
Ki [2]: 1.07 µM
antagonism at CB1 receptors [3]: antagonism
antagonism of 3 μM WIN 55212-2 at CB1 receptors [3]: antagonism

O=C(C(CCCc1ccccc1)N1C(=O)C(N2C(=O)OCC2c2ccccc2)C1C=Cc1ccccc1)N1CCN(C2CCCCC2)CC1 (stereo not drawn) [Example 62E]
IC50 [1]: 0.539 µM
Ki [1]: 0.360 µM

O=C(CC[C@@H](C(=O)N1CCN(C2CCCCC2)CC1)N1C(=O)[C@@H](N2C(=O)OC[C@@H]2c2ccccc2)[C@H]1/C=C/c1ccccc1)NCc1cccc(Cl)c1Cl [Example 37P]
IC50 [2, 7]: < 10 µM

CCCN1CCN(C(=O)CC[C@@H](C(=O)NCc2cccc(C(F)(F)F)c2)N2C(=O)[C@@H](N3C(=O)OC[C@@H]3c3ccccc3)[C@H]2/C=C/c2ccccc2)CC1 [Example 35AJ]
IC50 [2, 7]: < 10 µM
